Literature values in US20230065168A1, “[…] COMBINATION WITH A REPLICATION-DEFICIENT TYPE 5 […] EXPRESSION OF INTERFERON GAMMA FOR THE TREATMENT OF SKIN CANCER” (ASCEND BIOPHARMACEUTICALS LTD, priority 2021, published 2023).

## CS(=O)(=O)c1ccc(C(=O)Nc2ccc(Cl)c(-c3ccccn3)c2)c(Cl)c1 [vismodegib, 2-Chloro-N-(4-chloro-3-(pyridin-2-yl)phenyl)-4-(methylsulfonyl)benzamide]
Oral daily treatment
  time at which adverse events generally begin to manifest: 6-8 weeks
Patients with advanced BCC
  adverse events commonly associated with administration: muscle spasms, alopecia, dysgeusia, weight loss, fatigue, nausea, diarrhea, decreased appetite, constipation, arthralgia, vomiting, and ageusia
